From ChEMBL document CHEMBL1149721, “New Alkaloids from Haplophyllum tuberculatum” (J Nat Prod, 1992)
Active and inactive are the calls of the source. No cut-off for these calls is given here.

System: Staphylococcus aureus
Experiment: Antimicrobial activity against Staphylococcus aureus at 100 ug/ml
Assay type: functional, organism-based

CC(=O)OC(C)(C)[C@@H]1CC[C@](C)([C@H](O)COc2ccc(CCNC(=O)c3ccccc3)cc2)O1
Activity: inactive

COc1c2ccoc2nc2c(CC=C(C)C)c(O)ccc12
Activity: inactive

CC(=O)O[C@H](COc1ccc(CCNC(=O)c2ccccc2)cc1)[C@@]1(C)CC[C@@H](C(C)(C)OC(C)=O)O1
Activity: inactive

CC(=O)O[C@@H](CC[C@]1(C)O[C@@H]1COc1ccc(CCNC(=O)c2ccccc2)cc1)C(C)(C)OC(C)=O
Activity: inactive

CC(=O)O[C@@H](CC[C@]1(C)O[C@@H]1COc1ccc(CCNC(=O)C=C(C)C)cc1)C(C)(C)OC(C)=O
Activity: inactive
